Results published in paper PMC3961306, “Comparison of the Cancer Gene Targeting and Biochemical Selectivities of All Targeted Kinase Inhibitors Approved for Clinical Use” (PLoS ONE, 2014).

Tests used:
Experiment in all cases: Kinase profiling in a biochemical assay panel (mobility shift assays and ELISA), %-inhibition at 1 μM; selectivity entropy
[1] = target: panel of more than 300 wild-type and mutant kinases (313 kinase panel) (Homo sapiens, UniProt P06493)
[2] = target: panel of more than 300 wild-type and mutant kinases (313 kinase panel) (Homo sapiens, UniProt P08581, Y1235D)
Chain of panel of more than 300 wild-type and mutant kinases (313 kinase panel) (Homo sapiens, UniProt P08581, Y1235D) (P08581 25-1390 Y1235D): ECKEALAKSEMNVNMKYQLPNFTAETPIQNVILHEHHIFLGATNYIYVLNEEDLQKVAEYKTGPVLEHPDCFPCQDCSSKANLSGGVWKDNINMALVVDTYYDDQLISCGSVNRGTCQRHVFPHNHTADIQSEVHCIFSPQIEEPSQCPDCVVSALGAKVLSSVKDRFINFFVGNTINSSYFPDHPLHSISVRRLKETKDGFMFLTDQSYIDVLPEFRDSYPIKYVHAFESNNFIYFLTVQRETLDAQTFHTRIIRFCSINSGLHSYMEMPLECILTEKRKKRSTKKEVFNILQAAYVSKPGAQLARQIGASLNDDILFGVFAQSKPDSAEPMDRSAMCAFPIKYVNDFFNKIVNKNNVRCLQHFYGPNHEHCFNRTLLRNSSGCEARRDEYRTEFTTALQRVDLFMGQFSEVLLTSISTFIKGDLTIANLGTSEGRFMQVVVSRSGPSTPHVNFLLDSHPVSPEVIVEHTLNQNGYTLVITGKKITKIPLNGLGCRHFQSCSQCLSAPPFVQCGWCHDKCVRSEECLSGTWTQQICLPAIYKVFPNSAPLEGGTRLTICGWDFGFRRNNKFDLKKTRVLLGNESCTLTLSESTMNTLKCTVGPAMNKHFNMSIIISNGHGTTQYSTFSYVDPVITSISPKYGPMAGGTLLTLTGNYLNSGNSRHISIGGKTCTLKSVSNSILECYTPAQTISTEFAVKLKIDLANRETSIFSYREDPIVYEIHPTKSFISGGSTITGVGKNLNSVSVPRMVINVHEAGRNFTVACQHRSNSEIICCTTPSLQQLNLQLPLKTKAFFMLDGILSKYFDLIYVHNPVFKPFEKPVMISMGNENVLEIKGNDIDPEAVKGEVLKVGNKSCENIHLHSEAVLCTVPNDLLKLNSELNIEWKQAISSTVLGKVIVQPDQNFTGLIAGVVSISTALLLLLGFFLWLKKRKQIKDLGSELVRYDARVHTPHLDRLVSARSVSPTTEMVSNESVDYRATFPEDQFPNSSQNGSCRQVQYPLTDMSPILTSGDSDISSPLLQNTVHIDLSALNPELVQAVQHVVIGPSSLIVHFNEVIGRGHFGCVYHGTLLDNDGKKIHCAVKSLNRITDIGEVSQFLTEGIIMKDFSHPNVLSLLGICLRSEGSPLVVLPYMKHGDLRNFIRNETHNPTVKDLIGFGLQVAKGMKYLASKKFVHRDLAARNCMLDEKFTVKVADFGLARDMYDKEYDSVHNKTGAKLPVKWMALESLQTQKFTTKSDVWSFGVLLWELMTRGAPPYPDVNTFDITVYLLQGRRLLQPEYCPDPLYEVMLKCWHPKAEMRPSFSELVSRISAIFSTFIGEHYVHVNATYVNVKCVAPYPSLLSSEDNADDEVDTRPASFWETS

[3] = target: T1, panel of more than 300 wild-type and mutant kinases (313 kinase panel) (Homo sapiens, UniProt P15735)
T1 sequence (P15735 1-406): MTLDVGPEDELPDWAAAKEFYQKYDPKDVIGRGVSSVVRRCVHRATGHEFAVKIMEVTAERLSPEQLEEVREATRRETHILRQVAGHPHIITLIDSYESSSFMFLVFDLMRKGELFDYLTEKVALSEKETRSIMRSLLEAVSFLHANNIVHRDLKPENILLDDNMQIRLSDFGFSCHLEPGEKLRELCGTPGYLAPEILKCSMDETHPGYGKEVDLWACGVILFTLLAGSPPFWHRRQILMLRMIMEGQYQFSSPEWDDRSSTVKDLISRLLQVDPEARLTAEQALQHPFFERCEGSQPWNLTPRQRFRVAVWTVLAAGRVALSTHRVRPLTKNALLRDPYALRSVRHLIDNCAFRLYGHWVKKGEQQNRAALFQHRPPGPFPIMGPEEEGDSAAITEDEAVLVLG

[4] = target: panel of more than 300 wild-type and mutant kinases (313 kinase panel) (Homo sapiens, UniProt P22607, K650E)
Chain of panel of more than 300 wild-type and mutant kinases (313 kinase panel) (Homo sapiens, UniProt P22607, K650E) (P22607 23-806 K650E): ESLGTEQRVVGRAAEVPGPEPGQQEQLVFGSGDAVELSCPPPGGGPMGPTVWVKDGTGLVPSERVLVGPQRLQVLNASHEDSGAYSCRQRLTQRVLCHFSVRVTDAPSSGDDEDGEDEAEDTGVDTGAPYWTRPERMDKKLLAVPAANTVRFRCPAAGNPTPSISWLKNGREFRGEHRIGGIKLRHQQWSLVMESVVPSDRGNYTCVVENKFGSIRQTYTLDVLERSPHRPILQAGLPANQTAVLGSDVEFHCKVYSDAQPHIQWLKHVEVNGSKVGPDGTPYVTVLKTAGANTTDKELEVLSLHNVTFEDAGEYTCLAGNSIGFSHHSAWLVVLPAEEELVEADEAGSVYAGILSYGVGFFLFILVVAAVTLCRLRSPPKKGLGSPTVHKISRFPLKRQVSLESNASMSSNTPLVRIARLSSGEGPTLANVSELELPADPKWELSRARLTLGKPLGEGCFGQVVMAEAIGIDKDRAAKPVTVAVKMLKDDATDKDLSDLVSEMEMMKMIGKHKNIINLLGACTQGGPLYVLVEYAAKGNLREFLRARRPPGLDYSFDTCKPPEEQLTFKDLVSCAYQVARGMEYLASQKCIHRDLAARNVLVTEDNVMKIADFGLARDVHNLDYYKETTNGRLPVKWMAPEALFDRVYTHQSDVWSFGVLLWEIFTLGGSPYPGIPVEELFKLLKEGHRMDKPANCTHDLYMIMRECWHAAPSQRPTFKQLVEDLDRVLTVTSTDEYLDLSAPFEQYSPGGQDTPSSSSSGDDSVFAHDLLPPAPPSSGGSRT

[5] = target: panel of more than 300 wild-type and mutant kinases (313 kinase panel) (Homo sapiens, UniProt P27361)
Chain of panel of more than 300 wild-type and mutant kinases (313 kinase panel) (Homo sapiens, UniProt P27361) (P27361 whole entry, change not shown): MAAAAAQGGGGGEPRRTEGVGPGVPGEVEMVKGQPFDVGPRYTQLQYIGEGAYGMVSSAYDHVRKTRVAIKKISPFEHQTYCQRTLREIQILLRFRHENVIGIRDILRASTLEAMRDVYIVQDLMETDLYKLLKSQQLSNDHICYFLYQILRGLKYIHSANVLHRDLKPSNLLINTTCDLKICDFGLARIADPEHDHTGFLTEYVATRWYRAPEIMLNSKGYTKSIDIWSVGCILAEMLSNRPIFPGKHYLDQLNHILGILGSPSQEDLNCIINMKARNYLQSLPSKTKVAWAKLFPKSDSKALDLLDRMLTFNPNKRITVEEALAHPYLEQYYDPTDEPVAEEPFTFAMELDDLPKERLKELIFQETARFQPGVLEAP

[6] = target: panel of more than 300 wild-type and mutant kinases (313 kinase panel) (Homo sapiens, UniProt P28482)
[7] = target: T2, panel of more than 300 wild-type and mutant kinases (313 kinase panel) (Homo sapiens, UniProt Q8TF76)
T2 sequence (Q8TF76 1-798): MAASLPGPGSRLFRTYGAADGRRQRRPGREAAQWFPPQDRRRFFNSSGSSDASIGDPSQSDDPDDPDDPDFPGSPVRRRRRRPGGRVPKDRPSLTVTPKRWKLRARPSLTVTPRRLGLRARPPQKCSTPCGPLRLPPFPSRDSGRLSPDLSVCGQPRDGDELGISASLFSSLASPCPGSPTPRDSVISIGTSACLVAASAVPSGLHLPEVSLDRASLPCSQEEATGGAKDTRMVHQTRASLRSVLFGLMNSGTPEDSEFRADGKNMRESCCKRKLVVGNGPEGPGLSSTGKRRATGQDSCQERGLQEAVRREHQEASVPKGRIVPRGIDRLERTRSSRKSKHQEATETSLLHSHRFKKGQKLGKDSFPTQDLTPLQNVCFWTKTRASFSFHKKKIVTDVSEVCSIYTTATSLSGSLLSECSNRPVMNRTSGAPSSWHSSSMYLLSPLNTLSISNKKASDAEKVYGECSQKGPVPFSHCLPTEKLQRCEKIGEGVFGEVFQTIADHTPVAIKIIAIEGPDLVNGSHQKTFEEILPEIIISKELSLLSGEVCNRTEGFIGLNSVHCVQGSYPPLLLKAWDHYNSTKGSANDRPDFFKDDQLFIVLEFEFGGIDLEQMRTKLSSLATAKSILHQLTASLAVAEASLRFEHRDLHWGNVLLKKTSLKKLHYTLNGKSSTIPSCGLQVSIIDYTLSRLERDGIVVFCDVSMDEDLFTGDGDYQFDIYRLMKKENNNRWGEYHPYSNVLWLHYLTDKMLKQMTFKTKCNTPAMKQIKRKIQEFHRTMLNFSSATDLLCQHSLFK

[8] = target: panel of more than 300 wild-type and mutant kinases (313 kinase panel) (Homo sapiens, UniProt Q96GD4)
[9] = target: T3, panel of more than 300 wild-type and mutant kinases (313 kinase panel) (Homo sapiens, UniProt Q9H093)
T3 sequence (Q9H093 1-628): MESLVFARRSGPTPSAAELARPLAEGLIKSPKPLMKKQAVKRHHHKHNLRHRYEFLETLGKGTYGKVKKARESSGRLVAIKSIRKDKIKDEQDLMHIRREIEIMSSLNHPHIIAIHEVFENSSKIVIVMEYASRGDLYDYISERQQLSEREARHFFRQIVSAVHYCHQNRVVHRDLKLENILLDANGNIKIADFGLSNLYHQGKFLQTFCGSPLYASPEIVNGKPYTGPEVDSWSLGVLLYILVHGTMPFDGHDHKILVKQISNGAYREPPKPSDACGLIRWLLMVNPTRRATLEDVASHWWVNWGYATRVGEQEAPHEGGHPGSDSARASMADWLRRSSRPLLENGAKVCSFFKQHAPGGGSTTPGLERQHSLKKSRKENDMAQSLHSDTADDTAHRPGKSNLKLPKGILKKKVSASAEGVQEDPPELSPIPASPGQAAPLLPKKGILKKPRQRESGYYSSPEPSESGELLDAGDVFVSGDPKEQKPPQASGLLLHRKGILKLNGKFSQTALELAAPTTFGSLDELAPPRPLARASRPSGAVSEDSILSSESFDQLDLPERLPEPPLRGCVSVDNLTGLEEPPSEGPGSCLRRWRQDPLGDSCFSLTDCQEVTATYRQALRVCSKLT

[10] = target: panel of more than 300 wild-type and mutant kinases (313 kinase panel) (Homo sapiens, UniProt Q9H4A3)
Chain of panel of more than 300 wild-type and mutant kinases (313 kinase panel) (Homo sapiens, UniProt Q9H4A3) (Q9H4A3 whole entry, change not shown): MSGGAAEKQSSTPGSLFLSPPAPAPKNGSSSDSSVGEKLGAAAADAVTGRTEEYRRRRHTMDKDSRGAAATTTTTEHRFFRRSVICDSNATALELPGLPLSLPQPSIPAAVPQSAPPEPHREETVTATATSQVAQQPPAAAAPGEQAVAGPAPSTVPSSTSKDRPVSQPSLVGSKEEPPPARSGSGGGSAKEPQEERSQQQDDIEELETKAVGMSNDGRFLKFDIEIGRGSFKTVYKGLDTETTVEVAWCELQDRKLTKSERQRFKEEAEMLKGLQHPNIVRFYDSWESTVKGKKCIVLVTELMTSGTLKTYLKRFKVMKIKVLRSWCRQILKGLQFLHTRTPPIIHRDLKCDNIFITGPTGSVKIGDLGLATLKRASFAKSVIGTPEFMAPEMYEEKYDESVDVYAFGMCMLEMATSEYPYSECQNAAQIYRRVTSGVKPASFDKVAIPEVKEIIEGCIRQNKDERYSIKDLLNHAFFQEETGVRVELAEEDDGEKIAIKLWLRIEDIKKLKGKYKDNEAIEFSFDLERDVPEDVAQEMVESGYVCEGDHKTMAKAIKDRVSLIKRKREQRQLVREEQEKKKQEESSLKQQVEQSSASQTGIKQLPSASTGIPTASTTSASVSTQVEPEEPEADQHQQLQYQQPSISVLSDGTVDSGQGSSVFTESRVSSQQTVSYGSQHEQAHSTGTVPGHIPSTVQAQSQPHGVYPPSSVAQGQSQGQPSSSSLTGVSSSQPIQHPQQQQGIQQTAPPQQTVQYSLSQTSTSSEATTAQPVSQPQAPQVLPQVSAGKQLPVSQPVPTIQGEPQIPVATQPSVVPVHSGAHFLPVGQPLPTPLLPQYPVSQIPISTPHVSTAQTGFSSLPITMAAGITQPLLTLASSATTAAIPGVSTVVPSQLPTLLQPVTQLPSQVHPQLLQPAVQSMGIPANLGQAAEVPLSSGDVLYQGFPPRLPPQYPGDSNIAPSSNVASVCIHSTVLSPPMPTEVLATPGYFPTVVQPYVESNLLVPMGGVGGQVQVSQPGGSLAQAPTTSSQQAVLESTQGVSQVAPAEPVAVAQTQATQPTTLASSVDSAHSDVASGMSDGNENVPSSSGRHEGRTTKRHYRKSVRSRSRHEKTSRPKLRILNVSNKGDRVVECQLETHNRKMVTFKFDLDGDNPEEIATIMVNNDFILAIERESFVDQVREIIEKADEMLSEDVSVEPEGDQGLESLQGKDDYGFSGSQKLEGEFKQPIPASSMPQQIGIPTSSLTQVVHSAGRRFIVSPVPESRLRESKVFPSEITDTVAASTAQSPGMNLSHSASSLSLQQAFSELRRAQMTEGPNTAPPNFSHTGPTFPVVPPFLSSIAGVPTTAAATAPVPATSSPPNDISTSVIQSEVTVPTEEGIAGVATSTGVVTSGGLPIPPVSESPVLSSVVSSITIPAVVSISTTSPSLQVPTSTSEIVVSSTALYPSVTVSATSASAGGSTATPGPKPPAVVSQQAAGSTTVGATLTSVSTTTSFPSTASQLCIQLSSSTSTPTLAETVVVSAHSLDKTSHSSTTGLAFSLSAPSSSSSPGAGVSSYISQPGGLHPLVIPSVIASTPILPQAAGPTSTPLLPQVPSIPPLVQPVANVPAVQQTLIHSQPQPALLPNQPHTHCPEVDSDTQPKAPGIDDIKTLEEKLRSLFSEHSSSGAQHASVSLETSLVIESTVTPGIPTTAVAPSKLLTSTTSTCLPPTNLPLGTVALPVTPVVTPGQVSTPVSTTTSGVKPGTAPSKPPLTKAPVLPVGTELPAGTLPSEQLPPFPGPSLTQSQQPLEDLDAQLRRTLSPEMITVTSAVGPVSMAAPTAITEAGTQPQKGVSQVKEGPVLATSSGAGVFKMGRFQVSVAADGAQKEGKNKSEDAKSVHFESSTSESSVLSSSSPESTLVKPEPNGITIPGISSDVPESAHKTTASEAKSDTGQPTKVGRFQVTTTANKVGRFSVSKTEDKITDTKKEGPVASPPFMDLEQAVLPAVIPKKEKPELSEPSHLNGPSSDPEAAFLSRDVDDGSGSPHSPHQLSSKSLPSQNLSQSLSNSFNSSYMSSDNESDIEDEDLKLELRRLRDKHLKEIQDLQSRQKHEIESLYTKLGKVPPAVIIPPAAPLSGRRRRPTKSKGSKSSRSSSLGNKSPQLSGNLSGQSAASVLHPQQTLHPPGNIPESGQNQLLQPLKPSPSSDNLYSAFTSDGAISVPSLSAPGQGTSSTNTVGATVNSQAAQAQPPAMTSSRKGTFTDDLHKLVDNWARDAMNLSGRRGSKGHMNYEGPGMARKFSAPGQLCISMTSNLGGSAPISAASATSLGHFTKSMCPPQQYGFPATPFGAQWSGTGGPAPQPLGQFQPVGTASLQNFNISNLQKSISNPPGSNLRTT

[11] = kinase CDC2/CycB1, 1 μM compound
[12] = kinase MET(Y1235D), compound at 1 μM
[13] = kinase FGFR3(K650E), compound at 1 μM
[14] = kinase Haspin, compound at 1 μM

Structure (SMILES)	%-inhibition, CDC2/CycB1 [1, 11] [%]	%-inhibition of MET(Y1235D) [2, 12] [%]	%-inhibition of PHKG2 ([3]; kinase PHKG2, 1 μM) [%]	%-inhibition of FGFR3(K650E) [4, 13] [%]	%-inhibition of Erk1 ([5]; kinase Erk1, compound at 1 μM) [%]	%-inhibition of Erk2 ([6]; kinase Erk2, compound at 1 μM) [%]	%-inhibition of Haspin [7, 14] [%]	%-inhibition, AurB ([8]; kinase AurB, 1 μM compound) [%]	%-inhibition of NuaK2 ([9]; kinase NuaK2, 1 μM) [%]	%-inhibition of WNK1 ([10]; kinase WNK1, compound at 1 μM) [%]	%-inhibition of PHKG2 ([3]; 1 µM) [%]	%-inhibition, AurB ([8]; 1 µM) [%]	%-inhibition of MET(Y1235D) ([2]; 1 µM) [%]	%-inhibition of NuaK2 ([9]; 1 µM) [%]	%-inhibition, CDC2/CycB1 ([1]; 1 µM) [%]	%-inhibition of FGFR3(K650E) ([4]; 1 µM) [%]	%-inhibition of Erk1 ([5]; 1 µM) [%]	%-inhibition of Erk2 ([6]; 1 µM) [%]	%-inhibition of Haspin ([7]; 1 µM) [%]	%-inhibition of WNK1 ([10]; 1 µM) [%]
CO[C@H]1C[C@@H]2CC[C@@H](C)[C@@](O)(O2)C(=O)C(=O)N2CCCC[C@H]2C(=O)O[C@H]([C@H](C)C[C@@H]2CC[C@@H](OC(=O)C(C)(CO)CO)[C@H](OC)C2)CC(=O)[C@H](C)/C=C(\C)[C@@H](O)[C@@H](OC)C(=O)[C@H](C)C[C@H](C)/C=C/C=C/C=C/1C [temsirolimus]	-23	-6.4	-7	-2.55	0.373	-6	3	-4	-5.44	-4.27										
CS(=O)(=O)CCNCc1ccc(-c2ccc3ncnc(Nc4ccc(OCc5cccc(F)c5)c(Cl)c4)c3c2)o1 [lapatinib]	0.355	2		0.415	-4	-7	3.3		-1.19	-0.825	0.269	9								
N#CC[C@H](C1CCCC1)n1cc(-c2ncnc3[nH]ccc23)cn1 [ruxolitinib]	0.106		18	16	-2.29	-5.62	-6.62	24	41	-4			-0.936							
Cc1cn(-c2cc(NC(=O)c3ccc(C)c(Nc4nccc(-c5cccnc5)n4)c3)cc(C(F)(F)F)c2)cn1 [nilotinib]	1	-4.56	-9	-37	3.21	1.49	2.56	-11		-0.88				-44						
C#Cc1cccc(Nc2ncnc3cc(OCCOC)c(OCCOC)cc23)c1 [erlotinib]											4	25	22	-0.531	6	80	0.357	-2	-8	1.82
